Experimental data as given in article PMC10407194 (Current Research in Insect Science, 2023).

Molecular target: T1, TcTRPA1 (Tribolium castaneum, UniProt A0A139WJZ5)
T1 sequence (A0A139WJZ5 1-1242): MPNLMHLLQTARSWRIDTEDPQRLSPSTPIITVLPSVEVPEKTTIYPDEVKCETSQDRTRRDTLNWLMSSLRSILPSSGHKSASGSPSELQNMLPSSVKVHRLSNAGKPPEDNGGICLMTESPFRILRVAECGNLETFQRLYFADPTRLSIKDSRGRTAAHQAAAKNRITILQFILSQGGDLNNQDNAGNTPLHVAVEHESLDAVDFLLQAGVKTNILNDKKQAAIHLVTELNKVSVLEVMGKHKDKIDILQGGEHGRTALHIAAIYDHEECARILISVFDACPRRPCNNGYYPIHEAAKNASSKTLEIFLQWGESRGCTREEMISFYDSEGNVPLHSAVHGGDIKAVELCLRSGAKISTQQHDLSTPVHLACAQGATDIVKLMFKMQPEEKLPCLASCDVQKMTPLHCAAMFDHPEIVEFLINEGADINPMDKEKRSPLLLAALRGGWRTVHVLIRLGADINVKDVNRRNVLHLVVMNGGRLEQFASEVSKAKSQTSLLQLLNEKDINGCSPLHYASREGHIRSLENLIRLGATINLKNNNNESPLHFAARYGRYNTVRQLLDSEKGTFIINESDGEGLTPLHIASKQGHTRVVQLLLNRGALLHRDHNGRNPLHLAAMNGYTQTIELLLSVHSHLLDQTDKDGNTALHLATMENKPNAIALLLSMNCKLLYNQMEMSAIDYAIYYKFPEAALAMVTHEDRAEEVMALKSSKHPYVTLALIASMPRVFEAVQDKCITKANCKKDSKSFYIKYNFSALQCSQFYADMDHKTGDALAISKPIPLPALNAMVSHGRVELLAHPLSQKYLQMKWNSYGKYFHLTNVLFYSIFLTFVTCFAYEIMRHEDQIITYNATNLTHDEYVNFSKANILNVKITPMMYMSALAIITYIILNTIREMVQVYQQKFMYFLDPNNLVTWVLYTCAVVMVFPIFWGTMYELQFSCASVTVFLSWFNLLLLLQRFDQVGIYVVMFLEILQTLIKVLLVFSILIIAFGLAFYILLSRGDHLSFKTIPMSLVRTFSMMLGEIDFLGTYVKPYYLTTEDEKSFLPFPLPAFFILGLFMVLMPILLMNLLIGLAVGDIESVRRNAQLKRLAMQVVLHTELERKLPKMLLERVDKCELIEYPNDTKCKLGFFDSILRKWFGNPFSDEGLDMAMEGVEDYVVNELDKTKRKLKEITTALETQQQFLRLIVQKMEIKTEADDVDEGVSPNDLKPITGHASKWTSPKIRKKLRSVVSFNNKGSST
Assay: Ca2+ influx fluorescence assay
Assay type: cell-based

For `CC(C)=CCCC(C)CC=O` (stereo not shown) [citronellal], the EC50 was 69.7 µM.
